This passage reports Activity and Stability results from ChEMBL document CHEMBL5042552, “Site-Specific Isopeptide Bond Formation: A Powerful Tool for the Generation of Potent and Nontoxic Antimicrobial Peptides” (J Med Chem, 2022).

Active and inactive are the calls of the source. The calls are words filed in the database; no cut-off is given here. Starred links: 1 amine or outer side, 2 acyl side, 3 side chain; linkers in the order of their positions; H or OH if unused. Positions of bridges follow the written chain, without caps; N, C: chain ends. Non-standard residues stand in square brackets, D forms with d. Residues, ends and D or L forms follow the SMILES beside them. Groups on a side chain read outwards from the residue. Chains are numbered I, II in the order given. εLys = N[C@@H](CCCCN[*:1])C(=O)[*:2]

In data set [1] the test system is Staphylococcus aureus. Nature of the data set: Induction of membrane permeabilization in Staphylococcus aureus at MIC concentration by SYTOX-green staining based flow cytometry method. The class given is functional.
Data set [2] relates to Pseudomonas aeruginosa. Nature of the data set: Induction of membrane permeabilization in Pseudomonas aeruginosa at MIC concentration by SYTOX-green staining based flow cytometry method. The class given is functional.
The subject of data set [3] is Escherichia coli. Nature of the data set: Induction of membrane permeabilization in Escherichia coli at MIC concentration by SYTOX-green staining based flow cytometry method. The class given is functional.
In data set [4] the test system is Bacillus subtilis. Nature of the data set: Induction of membrane permeabilization in Bacillus subtilis at MIC concentration by SYTOX-green staining based flow cytometry method. The class given is functional.
Data set [5] can be described thus: Hemolytic activity in human erythrocytes at 12.5 uM incubated for 1 hr by microplate reader assay. The note with it: erythrocyte. The data set is classed as toxicity, cell-based.
The subject of data set [6] is RAW264.7. Nature of the data set: Cytotoxicity against mouse RAW264.7 cells assessed as reduction in cell viability at 10 to 100 uM incubated for 24 hrs by XTT assay. The class given is toxicity, cell-based. The note with it: raw264.7, 24 h, dose 10-100 µM.
Data set [7] deals with HEK293. Nature of the data set: Cytotoxicity against HEK293 cells assessed as reduction in cell viability at 10 to 100 uM incubated for 24 hrs by XTT assay. The note with it: human, hek293, 24 h, dose 10-100 µM. The class given is toxicity, cell-based.
Data set [8] deals with Cell membrane. Nature of the data set: Disruption of membrane integrity in Bacillus subtilis at MIC by […] green dye based confocal microscopy analysis.
The test system of data set [9] is Cell membrane. Nature of the data set: Disruption of membrane integrity in Escherichia coli at MIC by […] green dye based confocal microscopy analysis.
The subject of data set [10] is Cell membrane. Nature of the data set: Disruption of membrane integrity in Staphylococcus aureus at MIC by […] green dye based confocal microscopy analysis.
Data set [11] is described as follows: Stability in human plasma after 2 hrs by RP-HPLC method. The class given is ADME, cell-free.
Data set [12] concerns the target Trypsin (Homo sapiens, UniProt P07477+P07478+P35030). Nature of the data set: Stability of compound assessed as trypsin (unknown origin) mediated compound degradation at 100 uM measured after 30 mins by RP-HPLC method. The class given is ADME, protein assay. The note with it: 0.5 h.
In data set [13] the test system is Cell membrane. Nature of the data set: Disruption of membrane integrity in Pseudomonas aeruginosa at MIC by […] green dye based confocal microscopy analysis.
Data set [14] has as its system RAW264.7. Nature of the data set: Cytotoxicity against mouse RAW264.7 cells assessed as reduction in cell viability at 100 uM incubated for 24 hrs by XTT assay. The class given is toxicity, cell-based. Conditions: raw264.7, 24 h.
Data set [15] is described as follows: Hemolytic activity in human erythrocytes at 80 uM incubated for 1 hr by microplate reader assay. Conditions: erythrocyte. The data set is classed as toxicity, cell-based.
A short description of data set [16]: Hemolytic activity in human erythrocytes at 2.5 to 80 uM incubated for 1 hr by microplate reader assay. The class given is toxicity, cell-based. The note with it: erythrocyte, dose 2.5-80 µM.

Consider `CC(C)C[C@H](NC(=O)[C@H](CC(C)C)NC(=O)[C@H](CCCCN)NC(=O)[C@H](CC(C)C)NC(=O)[C@H](CC(C)C)NC(=O)[C@H](CCCCN)NC(=O)[C@H](CCCCN)NC(=O)[C@H](CC(C)C)NC(=O)[C@H](CC(C)C)NC(=O)[C@H](CCCCN)NC(=O)[C@H](CCCCN)NC(=O)[C@H](CC(C)C)NC(=O)[C@H](CC(C)C)NC(=O)[C@H](CCCCN)NC(=O)[C@@H](N)CC(C)C)C(N)=O` (H-LKLLKKLLKKLLKLL-NH2), for which the Activity in data set [1] was 46%; in data set [2], 98%; in data set [3], 98%; in data set [4], 41%; in data set [5], “Toxic”; in data set [6] it was “Toxic”. The Activity result in data set [7] was “Toxic”. Further, the outcome in data set [8], in [9], in data set [10] and in data set [13] was inactive. Further, the Stability entry in [11] was “Stable”; in data set [12] it was “Unstable”.
Consider `CC(C)C[C@H](NC(=O)[C@H](CC(C)C)NC(=O)[C@H](CCCCN)NC(=O)[C@H](CC(C)C)NC(=O)[C@H](CC(C)C)NC(=O)[C@H](CCCCN)NC(=O)[C@@H](N)CCCCNC(=O)[C@H](CC(C)C)NC(=O)[C@H](CC(C)C)NC(=O)[C@H](CCCCN)NC(=O)[C@H](CCCCN)NC(=O)[C@H](CC(C)C)NC(=O)[C@H](CC(C)C)NC(=O)[C@H](CCCCN)NC(=O)[C@@H](N)CC(C)C)C(N)=O` (H-LKLLKKLL[εLys]KLLKLL-NH2), for which the Activity in data set [1] is 89%; in data set [2] it was 98%; in data set [3] it was 98%; in data set [14], “Non-Toxic”; in data set [4], 98%; in data set [15] it was “Non-Toxic”. The outcome in data set [8], in data set [9], in [10] and in data set [13] was Active. In [11], the Stability result is “Stable”.
As for `CC(C)C[C@H](NC(=O)[C@H](CC(C)C)NC(=O)[C@H](CCCCN)NC(=O)[C@H](CC(C)C)NC(=O)[C@H](CC(C)C)NC(=O)[C@H](CCCCN)NC(=O)[C@H](CCCCN)NC(=O)[C@H](CC(C)C)NC(=O)[C@H](CC(C)C)NC(=O)[C@H](CCCCN)NC(=O)[C@H](CCCCN)NC(=O)[C@H](CC(C)C)NC(=O)[C@H](CC(C)C)NC(=O)[C@@H](N)CCCCNC(=O)[C@@H](N)CC(C)C)C(N)=O` (H-K(Leu)LLKKLLKKLLKLL-NH2), the Activity entry is recorded as “Non-Toxic” in data set [16], “Toxic” in [6] and “Toxic” in data set [7]. In addition, the figures for the Stability entry in data set [11] and in [12] were “Stable” and “Unstable”, respectively.
In the case of `CC(C)C[C@H](NC(=O)[C@H](CC(C)C)NC(=O)[C@H](CCCCN)NC(=O)[C@H](CC(C)C)NC(=O)[C@H](CC(C)C)NC(=O)[C@H](CCCCN)NC(=O)[C@H](CCCCN)NC(=O)[C@H](CC(C)C)NC(=O)[C@H](CC(C)C)NC(=O)[C@H](CCCCN)NC(=O)[C@@H](N)CCCCNC(=O)[C@H](CC(C)C)NC(=O)[C@H](CC(C)C)NC(=O)[C@H](CCCCN)NC(=O)[C@@H](N)CC(C)C)C(N)=O` (H-K([Leu-Leu-Lys-Leu])KLLKKLLKLL-NH2), the values for the Activity entry in [16], in data set [6] and in [7] were “Non-Toxic”, “Toxic” and “Toxic”, respectively. Moreover, the Stability result is recorded as “Stable” in data set [11] and “Unstable” in [12].
Take `CC(C)C[C@H](NC(=O)[C@H](CC(C)C)NC(=O)[C@H](CCCCN)NC(=O)[C@H](CC(C)C)NC(=O)[C@H](CC(C)C)NC(=O)[C@H](CCCCN)NC(=O)[C@H](CCCCN)NC(=O)[C@H](CC(C)C)NC(=O)[C@H](CC(C)C)NC(=O)[C@@H](N)CCCCNC(=O)[C@H](CCCCN)NC(=O)[C@H](CC(C)C)NC(=O)[C@H](CC(C)C)NC(=O)[C@H](CCCCN)NC(=O)[C@@H](N)CC(C)C)C(N)=O` (I: H-KLLKKLLKLL-NH2 / II: H-LKLLK; amide I:1-II:C): the Activity entry is “Non-Toxic” in data set [16], “Toxic” in data set [6] and “Toxic” in [7]. Moreover, the Stability entry in data set [11] is reported as “Stable”; in data set [12] it was “Unstable”.
In the case of `CC(C)C[C@H](NC(=O)[C@H](CC(C)C)NC(=O)[C@H](CCCCN)NC(=O)[C@H](CC(C)C)NC(=O)[C@H](CC(C)C)NC(=O)[C@@H](N)CCCCNC(=O)[C@H](CCCCN)NC(=O)[C@H](CC(C)C)NC(=O)[C@H](CC(C)C)NC(=O)[C@H](CCCCN)NC(=O)[C@H](CCCCN)NC(=O)[C@H](CC(C)C)NC(=O)[C@H](CC(C)C)NC(=O)[C@H](CCCCN)NC(=O)[C@@H](N)CC(C)C)C(N)=O` (H-LKLLKKLLK[εLys]LLKLL-NH2), the Activity result in [14], in data set [16] and in [15] was “Non-Toxic” in each case. In addition, the Stability entry in [11] is recorded as “Stable”; in [12] it was “Unstable”.
Regarding `CC(C)C[C@H](NC(=O)[C@H](CC(C)C)NC(=O)[C@@H](N)CCCCNC(=O)[C@H](CC(C)C)NC(=O)[C@H](CC(C)C)NC(=O)[C@H](CCCCN)NC(=O)[C@H](CCCCN)NC(=O)[C@H](CC(C)C)NC(=O)[C@H](CC(C)C)NC(=O)[C@H](CCCCN)NC(=O)[C@H](CCCCN)NC(=O)[C@H](CC(C)C)NC(=O)[C@H](CC(C)C)NC(=O)[C@H](CCCCN)NC(=O)[C@@H](N)CC(C)C)C(N)=O` (H-LKLLKKLLKKLL[εLys]LL-NH2), the Activity entry in data set [6] and in data set [7] was “Toxic” each time. In addition, the Stability result in [11] was “Stable”; in data set [12] it was “Unstable”.
